The record followed here is patent US8431566B2, “Cyclopamine lactam analogs and methods of use thereof” (Infinity Discovery, Inc., priority 2007, dated 2013).

Test [1] deals with Hedgehog pathway in C3H10T1/2 cells. Nature of the test: C3H10T1/2 osteoblast differentiation assay (alkaline phosphatase readout, Shh-induced). It is filed as cell-based. The settings on record: Mus musculus, C3H 10T1/2, Approximate EC50 for inhibition, sonic Hedgehog 250 ng/ml, AP activity normalized against total protein. From the text: Hedgehog pathway specific cancer cell killing effects may be ascertained using the following assay. C3H10T1/2 cells differentiate into osteoblasts when contacted with the sonic hedgehog peptide (Shh-N). Upon differentiation; these osteoblasts produce high levels of alkaline phosphatase (AP) which can be measured in an enzymatic assay (Nakamura, et al., BBRC (1997) 237:465). Compounds that block the differentiation of C3H10T1/2 into osteoblasts (a Shh dependent event) can therefore be identified by a reduction in AP production (van der Horst, et al., Bone (2003) 33:899). The assay details are described below. The results (EC50 for inhibition) of the differentiation assay are shown below in Table 1.
Mouse embryonic mesoderm fibroblasts C3H10T1/2 cells (obtained from ATCC) were cultured in Basal MEM Media (Gibco/Invitrogen) supplemented with 10% heat inactivated FBS (Hyclone), 50 units/ml penicillin and 50 ug/ml streptomycin (Gibco/Invitrogen) at 37° C. with 5% CO2 in air atmosphere.
C3H10T1/2 cells were plated in 96 wells with a density of 8×10^3 cells/well. Cells were grown to confluence (72 hrs). After sonic Hedgehog (250 ng/ml), and/or compound treatment, the cells were lysed in 110 μL, of lysis buffer (50 mM Tris pH 7.4, 0.1% Triton X 100), plates were sonicated and lysates spun through 0.2 μm PVDF plates (Corning). 40 μL of lysates was assayed for AP activity in alkaline buffer solution (Sigma) containing 1 mg/ml p-Nitrophenyl Phosphate. After incubating for 30 min at 37° C., the plates were read on an Envision plate reader at 405 nm. Total protein was quantified with a BCA protein assay kit from Pierce according to manufacturer's instructions. AP activity was normalized against total protein.

For test [2], the system named is RL. Nature of the test: Non-Hodgkin's lymphoma colony formation in methylcellulose, RL. The settings on record: NHL, 1.0 uM, 72 hours. It is filed as cell-based, human. Here is the method:
(§1) The ability of Compound 12 to inhibit the in vitro growth of human cell lines derived from patients with non-Hodgkin's lymphoma (cell lines RL and Jeko-1) and Hodgkin's disease (cell line L428) was studied. Each of the cell lines was treated for 72 hours with Compound 12 (1.0 uM) followed by plating in methylcellulose.

Test [3] deals with murine Gli-1 mRNA. Nature of the test: Pancreatic cancer model: q-RT-PCR of HH pathway genes in harvested tumors, murine Gli-1. It is filed as in vivo. As to conditions: BXPC-3 tumors harvested 4 hours post the last dose; 30 mg/kg/day orally. Here is the method: (§2) The activity of Compound 12 was further tested in a human pancreatic model: BXPC-3 cells were implanted subcutaneously into the flanks of the right legs of mice. On day 42 post-tumor implant, the mice were randomized into two groups to receive either Vehicle (30% HPBCD) or Compound 12. Compound 12 was administered orally at 30 mg/kg/day. After receiving 25 daily doses, Compound 12 reduced tumor volume growth by 16% when compared to the vehicle control. At the end of the study, the tumors were harvested 4 hours post the last dose to evaluate an on target response by q-RT-PCR analysis of the HH pathway genes.

Test [4] relates to Gli-1 mRNA. Nature of the test: Medulloblastoma model (Ptch1/Hic1 subcutaneous allografts): Gli-1 mRNA expression in tumors. It is filed as in vivo, mouse. As to conditions: single oral dose, subcutaneously implanted medulloblastoma tumors, 8 hours post dose. As to the method:
(§3) The activity of Compound 12 was also evaluated in a transgenic mouse model of medulloblastoma. Mice that are heterozygous for loss of function mutations in the tumor suppressors Patched1 (Ptch1) and Hypermethylated in Cancer (Hic1) develop spontaneous medulloblastoma. […] When passaged as subcutaneous allografts, these tumors grow aggressively and are Hedgehog pathway-dependent. This model was employed to evaluate the efficacy of orally administered Compound, and to correlate activity with drug exposure in plasma and tumors.

Test [5] concerns U937. Nature of the test: AML colony formation in methylcellulose, U937. As to conditions: 1.0 uM, 72 hours. It is filed as cell-based, human. Here is the method: (§4) The ability of Compound 12 to inhibit the in vitro growth of human cell lines derived from patients with acute myeloid leukemia (AML, cell line U937) and myelodysplastic syndrome (MDS, cell line KG1 and KG1a) was studied. Each of the cell lines was treated for 72 hours with Compound 12 (1.0 uM) followed by plating in methylcellulose.

The test system of test [6] is human Gli-1. Nature of the test: Pancreatic cancer model: q-RT-PCR of HH pathway genes in harvested tumors, human Gli-1. In kind it is in vivo. The settings on record: BXPC-3 tumors harvested 4 hours post the last dose; 30 mg/kg/day orally. Here is the method:
as §2

Test [7] relates to BXPC-3 cells. Nature of the test: Pancreatic cancer model: subcutaneous BXPC-3 tumors in mice, tumor volume. In kind it is in vivo, human. As to conditions: BXPC-3 subcutaneous in mice; orally 30 mg/kg/day, 25 daily doses. As to the method: as §2
Test [8] relates to medulloblastoma. Nature of the test: Medulloblastoma model (Ptch1/Hic1 subcutaneous allografts): tumor growth. In kind it is in vivo, mouse. Here is the method: as §3
For test [9], the system named is Gli-reponsive luciferase reporter in REH. Nature of the test: Gli-responsive luciferase reporter transient transfection assay, REH. In kind it is cell-based. As to conditions: 1 uM, vehicle alone 6.73. Here is the method: (§5) The activity of Compound 12 (1 uM) against three pre-B cell acute lymphocytic leukemia cell lines (REH, RS4-11, and Nalm-6) was studied, using a transient transfection assay in which a Gli-reponsive luciferase reporter was transiently transfected into cells. Treatment with Compound 12 repressed luciferase activity compared to a vehicle treated control (Table 4).
Background: In a reporter assay the amount or activity of a reporter protein is the signal.

Test [10] has as its system KMS12. Nature of the test: Multiple myeloma colony growth in methylcellulose, KMS12. It is filed as cell-based, human. As to conditions: treated 96 hours, plated in methylcellulose, colonies quantified 10-21 days later. Here is the method:
(§6) The ability of Compound 12 to inhibit the growth of multiple myeloma cells (MM) in vitro was tested, using human multiple myeloma cells lines (NCI-H929 and KMS12) and primary clinical bone marrow specimens derived from patients with MM. The cells were treated for 96 hours with Compound, washed, then plated in methylcellulose. Tumor colonies were quantified 10-21 days later as an indicator of cell growth potential following treatment.

Test [11] has as its system Gli-reponsive luciferase reporter in RS4-11. Nature of the test: Gli-responsive luciferase reporter transient transfection assay, RS4-11. In kind it is cell-based. The settings on record: 1 uM, vehicle alone 12.97. Here is the method: as §5
Test [12] has as its system RS4-11. Nature of the test: Pre-B cell ALL colony formation in methylcellulose, RS4-11. In kind it is cell-based. As to conditions: treated 72 hours. As to the method:
(§7) The effect of Compound 12 on the growth of two of these cell lines, treated in vitro for 72 hours, was also studied. Following treatment, cells were washed and plated in methylcellulose.

The subject of test [13] is KG1a. Nature of the test: MDS colony formation in methylcellulose, KG1a. As to conditions: 1.0 uM, 72 hours. It is filed as cell-based, human. Here is the method:
as §4

The subject of test [14] is KG1. Nature of the test: MDS colony formation in methylcellulose, KG1. As to conditions: 1.0 uM, 72 hours. In kind it is cell-based, human. As to the method: as §4
Test [15] deals with primary clinical bone marrow specimens derived from patients with MM. Nature of the test: Multiple myeloma colony growth in methylcellulose, primary clinical bone marrow specimens. As to conditions: clinical samples from MM patients; treated 96 hours, plated in methylcellulose. In kind it is cell-based, human. Here is the method: as §6
Test [16] relates to REH. Nature of the test: Pre-B cell ALL colony formation in methylcellulose, REH. In kind it is cell-based. As to conditions: treated 72 hours. As to the method:
as §7

Test [17] relates to L428. Nature of the test: Hodgkin's disease colony formation in methylcellulose, L428. The settings on record: HD, 1.0 uM, 72 hours. In kind it is cell-based, human. Here is the method: as §1
In test [18] the test system is Jeko-1. Nature of the test: Non-Hodgkin's lymphoma colony formation in methylcellulose, Jeko-1. In kind it is cell-based, human. The settings on record: NHL, 1.0 uM, 72 hours. Here is the method:
as §1

The subject of test [19] is NCI-H929. Nature of the test: Multiple myeloma colony growth in methylcellulose, NCI-H929. As to conditions: treated 96 hours, plated in methylcellulose, colonies quantified 10-21 days later. In kind it is cell-based, human. As to the method: as §6
The subject of test [20] is Gli-reponsive luciferase reporter in Nalm-6. Nature of the test: Gli-responsive luciferase reporter transient transfection assay, Nalm-6. It is filed as cell-based. The settings on record: 1 uM, vehicle alone 8.42. As to the method: as §5
Setting [21] is: 2° plating (replating of colonies).

pEC50: −log10 of the molar value. A value given as a limit tells only on which side of the number the result lay.

Consider `CC1=C2C[C@H]3[C@@H](CC[C@H]4NC(=O)CC[C@@]43C)C2CC[C@@]2(C1)O[C@@H]1C[C@H](C)CN[C@H]1[C@H]2C` (some centres unmarked) [Compound 1], for which the pEC50 in test [1] is > 7.70.
Still for that read-out and setting: with `CC1=C2C[C@H]3[C@@H](CC[C@@H]4NC(=O)CC[C@@]43C)[C@@H]2CC[C@@]2(C1)O[C@@H]1C[C@H](C)CN[C@H]1[C@H]2C` [Compound 11] the figure was < 7.00.
For the compound `CC1=C2C[C@H]3[C@@H](CC[C@@H]4CNC(=O)CC[C@@]43C)[C@@H]2CC[C@@]2(C1)O[C@@H]1C[C@H](C)CN[C@H]1[C@H]2C` [Compound 12], the “% colony formation with Compound 12 (relative to vehicle control)” value in [2] is reported as 14.3%; in test [5], 43.4%; in test [13], 34.6%; in test [14], 25.1%; in test [17], 21.4%; in test [18] it was 27.4%. Besides, the “murine Gli-1 mRNA levels (q-RT-PCR) compared to Vehicle treated group” value in test [3] is “robust down-regulation”. Also, the “HH pathway regulation measured by Gli-1 mRNA expression” value in test [4] is given as “dose-dependent down-regulation”. The “human Gli-1 modulation (q-RT-PCR)” value in [6] is “no modulation”. The “reduced tumor volume growth compared to the vehicle control” value in [7] is reported as 16%. In addition, in test [8] (Mus musculus, daily oral dosing, medulloblastoma allografts, read-out: approximate effective daily oral dose for 50% inhibition of tumor growth (ED50)), the ED50 was 3 to 7.5 mg/kg. The tumor regression entry in test [8] (daily (QD) PO administration, at higher doses) was “frank tumor regression seen at higher doses”. For the same compound, the “inhibition of tumor growth” value in [8] (daily (QD) PO administration, medulloblastoma allografts) was “dose dependent inhibition of tumor growth”. This compound also gave a pEC50 in test [1] of 7.00 to 7.70. For the same compound, the “Relative luc activity (+ Compound)” value in test [9] is 1.12; in test [11], 1.31; in [20], 1.44. Besides, the “% growth of cells (untreated control 100%)” value in test [10], in test [15] and in test [19] was “less than 25%” in each case. Also, the “% colony formation with Compound (relative to vehicle control) - 1° plating” value in [12] (1° plating) came to 71%; in test [16] (1° plating), 63%. Also, the “% colony formation with Compound (relative to vehicle control) - 2° plating” value in test [12] (setting [21]) stood at 11%; in [16] (setting [21]) it was 9%.
In the case of `CC1=C2C[C@H]3[C@@H](CC[C@@H]4CC(=O)NCC[C@@]43C)[C@@H]2CC[C@@]2(C1)O[C@@H]1C[C@H](C)CN[C@H]1[C@H]2C` [Compound 19], the pEC50 in test [1] was < 7.00.
The same measure, in the same setting: with `CC1=C2C[C@H]3[C@@H](CC[C@@H]4CN(C)C(=O)CC[C@@]43C)[C@@H]2CC[C@@]2(C1)O[C@@H]1C[C@H](C)CN[C@H]1[C@H]2C` [Compound 31] the figure was 7.00 to 7.70.
On the same count and under the same terms, with `CC1=C2C[C@H]3[C@@H](CC[C@@H]4CN(C)C(=O)CC[C@@]43C)[C@@H]2CC[C@@]2(C1)O[C@@H]1C[C@H](C)CN(S(C)(=O)=O)[C@H]1[C@H]2C` [Compound 35] the figure was < 7.00; with `CC1=C2C[C@H]3[C@@H](CC[C@@H]4CNC(=O)CC[C@@]43C)[C@@H]2CC[C@@]2(C1)O[C@@H]1C[C@H](C)CN(S(C)(=O)=O)[C@H]1[C@H]2C` [Compound 40], > 7.70; with `CC1=C2C[C@H]3[C@@H](CCC4=CN(C)C(=O)CC[C@@]43C)[C@@H]2CC[C@@]2(C1)O[C@@H]1C[C@H](C)CN[C@H]1[C@H]2C` [Compound 41], < 7.00.
Still for that read-out and setting: with `CC1=C2C[C@H]3[C@@H](CC[C@@H]4CCN(S(C)(=O)=O)CC[C@@]43C)[C@@H]2CC[C@@]2(C1)O[C@@H]1C[C@H](C)CN(S(C)(=O)=O)[C@H]1[C@H]2C` [Compound 50] the figure was < 7.00.

In general, pEC50 refers to the negative decadic logarithm of the EC50, by convention in mol/L. In general, ED50 refers to the dose at which the effect has come halfway, by size or by number of responders.
